In this data set the target is ATP-dependent translocase ABCB1 (Homo sapiens, UniProt P08183). Description: TP_TRANSPORTER: transepithelial transport of BMS387032 at a concentration of 200uM in Caco-2 cells. The format is functional, cell-based. To be noted: caco-2, 200 µM. (In general: Caco-2 cells form a polarised layer with tight junctions and transporters.)
Chain of ATP-dependent translocase ABCB1 (P08183 whole entry): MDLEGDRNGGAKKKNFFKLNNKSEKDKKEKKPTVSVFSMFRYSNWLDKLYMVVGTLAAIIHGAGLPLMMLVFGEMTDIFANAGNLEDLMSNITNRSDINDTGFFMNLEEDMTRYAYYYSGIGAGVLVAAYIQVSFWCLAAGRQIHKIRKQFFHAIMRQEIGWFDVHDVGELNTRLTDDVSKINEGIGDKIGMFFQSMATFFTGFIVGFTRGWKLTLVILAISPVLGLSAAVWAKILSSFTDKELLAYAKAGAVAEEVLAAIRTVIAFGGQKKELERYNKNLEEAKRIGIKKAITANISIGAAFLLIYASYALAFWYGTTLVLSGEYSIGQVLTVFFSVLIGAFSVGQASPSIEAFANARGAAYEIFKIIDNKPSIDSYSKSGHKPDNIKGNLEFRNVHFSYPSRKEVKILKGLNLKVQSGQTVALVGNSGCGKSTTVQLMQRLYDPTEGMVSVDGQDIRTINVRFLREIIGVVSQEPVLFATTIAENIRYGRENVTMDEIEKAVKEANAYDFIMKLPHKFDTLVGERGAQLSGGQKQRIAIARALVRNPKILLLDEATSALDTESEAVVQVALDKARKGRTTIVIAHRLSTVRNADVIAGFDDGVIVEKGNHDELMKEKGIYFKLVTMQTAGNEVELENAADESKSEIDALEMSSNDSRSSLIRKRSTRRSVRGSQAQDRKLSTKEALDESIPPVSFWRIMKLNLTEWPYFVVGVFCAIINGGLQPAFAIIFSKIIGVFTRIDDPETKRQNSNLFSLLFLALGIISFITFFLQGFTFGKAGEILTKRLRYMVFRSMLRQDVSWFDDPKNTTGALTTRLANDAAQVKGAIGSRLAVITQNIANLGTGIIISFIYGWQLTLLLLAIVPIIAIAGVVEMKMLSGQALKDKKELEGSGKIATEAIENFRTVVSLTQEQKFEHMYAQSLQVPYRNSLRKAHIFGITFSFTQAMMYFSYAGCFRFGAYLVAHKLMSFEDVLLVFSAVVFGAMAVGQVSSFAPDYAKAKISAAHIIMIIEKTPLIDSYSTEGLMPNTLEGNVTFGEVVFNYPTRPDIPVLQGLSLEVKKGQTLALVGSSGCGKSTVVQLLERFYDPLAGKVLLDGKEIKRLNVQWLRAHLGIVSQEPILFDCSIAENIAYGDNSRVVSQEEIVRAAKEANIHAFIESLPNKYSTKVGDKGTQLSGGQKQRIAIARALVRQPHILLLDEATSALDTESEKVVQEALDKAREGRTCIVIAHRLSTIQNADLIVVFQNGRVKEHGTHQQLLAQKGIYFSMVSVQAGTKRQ

`CC(C)(C)c1cnc(CSc2cnc(NC(=O)C3CCNCC3)s2)o1` [BMS-387032]: the Activity result is “substrate [+]”.

Values taken from ChEMBL document CHEMBL2074409, “P-glycoprotein plays a role in the oral absorption of BMS-387032, a potent cyclin-dependent kinase 2 inhibitor, in rats” (Cancer Chemother Pharmacol, 2004).
